Data on one compound can be found in patent US20250109127A1, “METHODS OF USE OF PHENOXYPROPYLAMINE COMPOUNDS TO TREAT DEPRESSION” (Minerva Neurosciences, Inc., priority 2013, published 2025).

This assay concerns norepinephrin release in the rat prefrontal cortex. The assay is described as follows: Microdialysis: norepinephrine release in prefrontal cortex after I.P. administration. In kind it is in vivo. The conditions noted are these: for NOREPINEPHRIN (% of respective basal), individual animal: 0.3 mg/kg I.P., c2-c9 = R#11,12,18,23,29,30,17,24; for NOREPINEPHRIN (% of respective basal), individual animal / Norepinephrin release, individual animals: hydrochloride; for Norepinephrin release, MEAN / Norepinephrin release, individual animals: 3 mg/kg IP; for Norepinephrin release, MEAN: n = 8; for Norepinephrin release, individual animals: per animal R#15,16,21,22,27,28,09,10. As for the experimental part:
The aim of the study was to evaluate, using microdialysis, the effects of an intraperitoneal (I.P.) administration in rats of three different doses of SON-117 on dopamine and its metabolites, serotonin and its metabolite (5-HIAA), and norepinephrine levels in prefrontal cortex.
Thirty-two adult male Wistar rats were used for the whole study (4 groups of eight animals planned for the study, Table 1).
Surgery was performed on rats weighing about 300 g at the beginning of the experiments. Rats were anaesthetized with Ketamine (50 mg/kg) & Xylazine (15 mg/kg) by intramuscular administration. The animals were placed in a stereotaxic apparatus in the flat-skull position at a constant setting of −3.3 mm between ear bars and the incisor bar. The animals were treated with a local anesthesic (xylocaine 1%, Astra Zeneca) and an analgesic (Temgesic, from Schering Plough, 0.05 mg/kg, s.c.). A rostrocaudal midline incision was made with a lancet to expose the dorsal skull surface. The “stereotaxic zero” was defined by the Bregma in accordance with Paxinos and Watson's atlas (1986). A hole was drilled in the skull with a drill and the meninges were pierced with a sterile needle to implant a CMA12 guide cannula which later received the dialysis probe.
Coordinates used for implanting guide cannula in prefrontal cortex from Bregma were anteroposterior 3.7 mm, mediolateral 0.8 mm, and dorsoventral −2 mm (top of the probe was at −5 mm). The guide cannula was fixed to the skull with two stainless steel screws (1.88 mm outside diameter) anchored. An application of dental cement was added. A plastic collar allowed each animal to be tethered to a Swivel assembly of the CMA 120 awake animal system. Following surgery, rats were kept in individual cages and allowed to recover for a minimum of 3-5 days before the experimentation. The rats were handled and put in plastic bowl for 10 min at least every day to habituate the animals to their new environment for the dialysis. An I.P. administration with saline was also performed every day.
Dialysis probes (CMA12/3 mm, membrane, 20 kD cut-off, Carnegie Medicine, Stockholm, Sweden), were carefully washed before inserting into the guide cannula. The wash was performed with the artificial cerebrospinal fluid (aCSF) medium (NaCl 147 mM, KCl 2.7 mM, CaCl2 1.2 mM, MgCl2 0.85 mM) at room temperature. The dialysis system was then equilibrated at 20° C. at a perfusion rate of 1 μl/min with a Carnegie pump (CMA100). All catheters (FEP tubing, internal volume of 1.2 μl/10 cm, and tubing adaptors) used for microdialysis were treated in the same conditions.
The probes duly prepared were inserted into the guide cannula and the CMA120 Swivel assembly secured to the animal using a plastic collar. Flow through the dialysis probe with aCSF was maintained at a rate of 1 μl/min during the whole experimentation. The first four fractions (corresponding to 2 hours) were discarded to avoid the effects of parenchymal disturbance and to ensure that an approximate steady-state level was reached. Fractions were then collected over a period of 8.5 h during which time the animals remained quiet. The dialysates were automatically collected with an autosampler (microfraction collector CMA 140, Carnegie Medicin) and stored at −80° C. until analysis. […] Perfusion was then maintained for 7 hours with aCSF. The dialysates (30 μl) were collected into 300 μl vials, transferred into dry ice and then kept frozen (−80° C.) until analysis. Frozen samples were shipped to a partner for analysis. At the end of the microdialysis study, a PBS with colored ink was perfused through the probe in order to visualize the dialyzed area.
Catecholamine assay: Concentrations of dopamine, DOPAC, HVA, 5-HIAA, 5-HT, and norepinephrin were determined for each sample by HPLC coupled with electrochemical detection. […]

Values joined by “and” are separate entries in the source; they are usually repeats but may differ in a detail not shown here. Identical values can stand only once. Counter-ions that a name gives are not always drawn.

As to `Cc1nnc(-c2cc3c(OC[C@@H](O)CN4CCC(c5ccc(Cl)c(Cl)c5)CC4)cccc3o2)o1` [SON-117, (S)-1-(4-(3,4-dichlorophenyl)piperidino)-3-(2-(5-methyl-1,3,4-oxadiazol-2-yl)benzo(b)furan-4-yloxy)-2-propanol hydrochloride], the “NOREPINEPHRIN (% of respective basal), individual animal” value (from here on “NOREPINEPHRIN (% of respective basal)”) is 93.23 % of respective basal and 109.66 % of respective basal and 94.50 % of respective basal and 91.56 % of respective basal and 103.16 % of respective basal and 122.80 % of respective basal and 169.48 % of respective basal and 88.04 % of respective basal (T0-T30 min); 104.42 % of respective basal and 107.28 % of respective basal and 98.29 % of respective basal and 99.12 % of respective basal and 108.78 % of respective basal and 113.81 % of respective basal and 113.33 % of respective basal and 88.14 % of respective basal (T30-T1 h); 99.20 % of respective basal and 86.76 % of respective basal and 108.98 % of respective basal and 92.71 % of respective basal and 104.84 % of respective basal and 66.21 % of respective basal and 122.80 % of respective basal and 84.63 % of respective basal (T1 h 30-T2 h); 86.88 % of respective basal and 98.78 % of respective basal and 112.17 % of respective basal and 98.26 % of respective basal and 98.75 % of respective basal and 106.99 % of respective basal and 111.81 % of respective basal and 90.76 % of respective basal (T1 h-T1 h 30); 84.23 % of respective basal and 104.60 % of respective basal and 128.99 % of respective basal and 92.07 % of respective basal and 101.47 % of respective basal and 118.46 % of respective basal and 126.06 % of respective basal and 98.73 % of respective basal (T2 h 30-T3 h); 76.65 % of respective basal and 101.56 % of respective basal and 126.15 % of respective basal and 88.09 % of respective basal and 101.06 % of respective basal and 105.86 % of respective basal and 113.08 % of respective basal and 89.61 % of respective basal (T2 h-T2 h 30). Further, the “NOREPINEPHRIN (% of respective basal)” value reads like this: (T3 h 30-T4 h) 100.21 % of respective basal and 138.06 % of respective basal and 105.65 % of respective basal and 106.80 % of respective basal and 135.47 % of respective basal and 201.02 % of respective basal and 113.60 % of respective basal; (T3 h-T3 h 30) 120.36 % of respective basal and 139.04 % of respective basal and 95.95 % of respective basal and 93.13 % of respective basal and 129.61 % of respective basal and 137.11 % of respective basal and 99.05 % of respective basal; (T4 h 30-T5 h) 91.48 % of respective basal and 153.66 % of respective basal and 179.53 % of respective basal and 95.60 % of respective basal and 107.83 % of respective basal and 118.17 % of respective basal and 146.73 % of respective basal and 113.45 % of respective basal; (T4 h-T4 h 30) 88.77 % of respective basal and 125.81 % of respective basal and 155.70 % of respective basal and 105.70 % of respective basal and 109.87 % of respective basal and 112.18 % of respective basal and 148.00 % of respective basal and 108.96 % of respective basal; (T5 h 30-T6 h) 91.57 % of respective basal and 160.34 % of respective basal and 198.08 % of respective basal and 89.28 % of respective basal and 123.68 % of respective basal and 111.49 % of respective basal and 183.96 % of respective basal and 124.88 % of respective basal; (T5 h-T5 h 30) 62.74 % of respective basal and 157.36 % of respective basal and 184.76 % of respective basal and 91.16 % of respective basal and 116.17 % of respective basal and 125.90 % of respective basal and 153.13 % of respective basal and 108.22 % of respective basal. For the setting “T6 h-T6 h 30”, the “NOREPINEPHRIN (% of respective basal)” value is 107.74 % of respective basal and 153.11 % of respective basal and 204.06 % of respective basal and 115.67 % of respective basal and 145.69 % of respective basal and 126.68 % of respective basal. Further, the “Norepinephrin release, MEAN” value is, setting by setting: (T0-T30 min) 95.03 % of respective basal; (T30-T1 h) 97.36 % of respective basal; (T1 h 30-T2 h) 89.60 % of respective basal; (T1 h-T1 h 30) 107.89 % of respective basal; (T2 h 30-T3 h) 89.71 % of respective basal; (T2 h-T2 h 30) 89.42 % of respective basal. The “Norepinephrin release, individual animals” value runs as follows: (T30-T1 h) 88.36 % of respective basal and 115.03 % of respective basal and 81.23 % of respective basal and 99.91 % of respective basal and 84.13 % of respective basal and 101.13 % of respective basal and 112.87 % of respective basal and 96.25 % of respective basal; (T1 h 30-T2 h) 82.12 % of respective basal and 112.19 % of respective basal and 79.22 % of respective basal and 97.76 % of respective basal and 65.77 % of respective basal and 100.10 % of respective basal and 89.95 % of respective basal and 89.72 % of respective basal; (T1 h-T1 h 30) 172.07 % of respective basal and 112.74 % of respective basal and 81.36 % of respective basal and 103.59 % of respective basal and 89.22 % of respective basal and 99.07 % of respective basal and 110.12 % of respective basal and 94.94 % of respective basal; (T2 h 30-T3 h) 86.59 % of respective basal and 101.34 % of respective basal and 74.62 % of respective basal and 92.57 % of respective basal and 76.53 % of respective basal and 86.90 % of respective basal and 101.62 % of respective basal and 97.13 % of respective basal; (T2 h-T2 h 30) 76.71 % of respective basal and 108.71 % of respective basal and 69.68 % of respective basal and 89.57 % of respective basal and 80.18 % of respective basal and 97.07 % of respective basal and 98.74 % of respective basal and 94.71 % of respective basal.
